Consider 11 compounds from ChEMBL document CHEMBL1201862, “PubChem BioAssay data set” (2004).

Some test systems named below: NCI-H522; HCT-15; A549; ACHN; EKVX; NCI-H226; U-251; SF-295; UACC-62; Hs-578T; MOLT-4; OVCAR-8; MDA-N; CAKI-1; OVCAR-4; NCI/ADR-RES; TK-10; NCI-H23; HCC 2998; SR.
Holding throughout (experiment): NCI-60 cell line screen, 48 h

Several values for one entry are separate records, joined by “and”; a condition that tells them apart may be missing. Identical values can stand only once.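 Assay format: 96-well plates, 48-hour exposure. GI50 marks 50% less growth.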 Activity calls are given as the source filed them. No stated cut-off is given here; in the data, active = GI50 up to about 1.1 µM and inactive = higher.

Turning to `C#CCn1c(=O)c(I)cn(/C(=C/C(=O)OCC)C(=O)OCC)c1=O`, the GI50 with NCI-H522 is 0.649 µM (active); in the test with HCT-15, 2.74 µM; with A549, 18 µM (inactive); with ACHN, 1.67 µM (inactive); in the test on EKVX, 2.94 µM (inactive); in the test with NCI-H226, 25.7 µM (inactive). The GI50 in the test on U-251 was 16.6 µM (inactive); with SF-295 it was 39.7 µM (inactive); with UACC-62, 5.42 µM (inactive); in the test on Hs-578T, 15 µM (inactive); in the test on MOLT-4, < 0.0195 µM (active); with OVCAR-8, 3.56 µM (inactive). Moreover, the GI50 in the test with MDA-N was 3.37 µM (inactive); in the test with CAKI-1, 1.86 µM (inactive); with OVCAR-4, 8.22 µM (inactive); in the test with NCI/ADR-RES it was 18.9 µM (inactive); in the test with TK-10, 0.3 µM (active); in the test on NCI-H23 it was 15.3 µM (inactive).
In the case of `COc1ccc(C2Oc3c(OC)cc(CCCO)cc3C2CO)cc1OC` (stereo not drawn), the GI50 in the test on NCI-H522 is 86.7 µM (inactive); in the test on HCT-15 it was above 100 µM; with A549, 88.1 µM (inactive) and 80 µM (inactive); in the test with ACHN it was > 100 µM (inactive) and 76.6 µM (inactive); in the test on EKVX, 61.4 µM (inactive) and 39.9 µM (inactive); in the test with NCI-H226 it was > 100 µM (inactive). The GI50 in the test on U-251 is > 100 µM (inactive); with SF-295, 50.4 µM (inactive) and 70.8 µM (inactive); with UACC-62, 54.6 µM (inactive) and 83.9 µM (inactive); in the test with Hs-578T, > 100 µM (inactive); with MOLT-4 it was 42.5 µM (inactive) and 26.9 µM (inactive); with OVCAR-8 it was > 100 µM (inactive) and 89.3 µM (inactive). Besides, the GI50 is 93.1 µM (inactive) and 71.4 µM (inactive) in the test on MDA-N; > 100 µM (inactive) in the test with OVCAR-4; 69 µM (inactive) in the test with NCI/ADR-RES; > 100 µM (inactive) in the test on TK-10; > 100 µM (inactive) in the test on HCC 2998.
Regarding `CC1(C)OC(CCO)CN1C(=O)OCc1ccccc1` (stereo not drawn), the GI50 in the test on NCI-H522 is 74.6 µM (inactive); with HCT-15 it was above 100 µM; in the test on A549, > 100 µM (inactive); in the test with ACHN, > 100 µM (inactive); in the test with EKVX, > 100 µM (inactive); in the test on NCI-H226, > 100 µM (inactive). In addition, the GI50 in the test on U-251, in the test on SF-295, with SR, in the test with UACC-62, in the test on MOLT-4 and with OVCAR-8 was > 100 µM (inactive) each time. Besides, the GI50 in the test with MDA-N, in the test on CAKI-1, with OVCAR-4, with NCI/ADR-RES, in the test with TK-10 and in the test on HCC 2998 was > 100 µM (inactive) each time. Moreover, the GI50 in the test on NCI-H23 is > 100 µM (inactive).
`COC(=O)C1=C(C(=O)OC)C(Cc2ccccc2)(OO)OC1=O` (stereo not drawn): the GI50 is 2.32 µM (inactive) in the test on NCI-H522; 3.21 µM with HCT-15; 27.4 µM (inactive) with A549; 2.99 µM (inactive) in the test with ACHN; 11.3 µM (inactive) with EKVX; 5.46 µM (inactive) in the test with NCI-H226. The GI50 in the test with U-251 is 12.8 µM (inactive); in the test on SF-295, 29.5 µM (inactive); in the test with SR, 3.52 µM (inactive); in the test on UACC-62, 3.52 µM (inactive); in the test with MOLT-4, 3.64 µM (inactive); in the test with OVCAR-8, 18.4 µM (inactive). Also, the GI50 in the test with MDA-N is 4.03 µM (inactive); in the test with CAKI-1, 4.82 µM (inactive); with OVCAR-4, 16 µM (inactive); with NCI/ADR-RES it was 7.82 µM (inactive); in the test with TK-10, 3.4 µM (inactive); with HCC 2998, 60.1 µM (inactive). In the test on NCI-H23, the GI50 was 12.7 µM (inactive).
`COc1ccc(/N=[N+](\[O-])c2ccc(OC)cc2)cc1`: the GI50 in the test on NCI-H522 is 79.8 µM (inactive); in the test with HCT-15, above 100 µM; in the test on A549 it was > 100 µM (inactive); in the test with ACHN, > 100 µM (inactive); in the test on EKVX it was > 100 µM (inactive); in the test on U-251, > 100 µM (inactive). The GI50 in the test with SF-295, in the test with UACC-62, in the test with Hs-578T, in the test on MOLT-4, with OVCAR-8 and in the test on MDA-N was > 100 µM (inactive) throughout. The GI50 with CAKI-1, with OVCAR-4, in the test with NCI/ADR-RES, in the test with TK-10, with HCC 2998 and in the test on NCI-H23 was > 100 µM (inactive) each time.
`CCOC(=O)C1(C/C=C/CBr)Cc2ccccc2C1=O` (stereo not drawn): the GI50 with NCI-H522 was 1.63 µM (inactive); with HCT-15, 2.24 µM; in the test with A549, 10.5 µM (inactive); with ACHN it was 2.43 µM (inactive); with EKVX, 14.6 µM (inactive); in the test on U-251, 3.58 µM (inactive). For the same compound, the GI50 in the test on SF-295 is 8.57 µM (inactive); in the test with UACC-62, 2.14 µM (inactive); in the test on Hs-578T it was 5.53 µM (inactive); with MOLT-4, 2.49 µM (inactive); in the test on OVCAR-8, 2.39 µM (inactive); in the test with MDA-N, 2.2 µM (inactive). The GI50 in the test on CAKI-1 was 2.42 µM (inactive); with OVCAR-4, 2.03 µM (inactive); in the test with NCI/ADR-RES, 1.98 µM (inactive); with TK-10, 2.77 µM (inactive); in the test with HCC 2998, 9.02 µM (inactive); in the test with NCI-H23 it was 2.02 µM (inactive).
Consider `N#Cc1nc(/C=C/c2cccs2)oc1N`, for which the GI50 was 94.4 µM in the test with HCT-15; > 100 µM (inactive) with A549; 76.9 µM (inactive) in the test with ACHN; 33.7 µM (inactive) in the test with EKVX; 95.3 µM (inactive) in the test with U-251; 13.1 µM (inactive) in the test on SR. Also, the GI50 is > 100 µM (inactive) in the test with UACC-62; > 100 µM (inactive) in the test on Hs-578T; 45 µM (inactive) with MOLT-4; > 100 µM (inactive) in the test with OVCAR-8; > 100 µM (inactive) in the test on MDA-N; 65.3 µM (inactive) in the test on CAKI-1. The GI50 in the test with TK-10 was 61.4 µM (inactive).
Consider `CC1C2CC(CC2N)C1(C)C` (stereo not drawn), for which the GI50 with NCI-H522, in the test with A549, in the test on ACHN, in the test with EKVX, in the test with NCI-H226 and with U-251 was > 100 µM (inactive) throughout. Further, the GI50 in the test on SF-295, in the test on SR, with UACC-62, in the test with Hs-578T, in the test on MOLT-4 and in the test with OVCAR-8 was > 100 µM (inactive) each time. In addition, the GI50 in the test with MDA-N, in the test on CAKI-1, in the test on OVCAR-4, in the test with TK-10, in the test with HCC 2998 and with NCI-H23 was > 100 µM (inactive) throughout.
With `CCN(CC)CCCNC(=O)c1cc2cc(NC(=O)c3cc4cc([N+](=O)[O-])ccc4[nH]3)ccc2[nH]1`, the GI50 was above 100 µM in the test with HCT-15; > 100 µM (inactive) in the test on A549; > 100 µM (inactive) with ACHN; > 100 µM (inactive) in the test with EKVX; > 100 µM (inactive) with NCI-H226; > 10 µM (inactive) in the test on U-251. Further, the GI50 in the test on SF-295 was 44.3 µM (inactive); in the test with SR, > 100 µM (inactive); in the test on UACC-62 it was 32.8 µM (inactive); in the test with OVCAR-8, > 100 µM (inactive); in the test on MDA-N, 70.1 µM (inactive); in the test on CAKI-1 it was > 100 µM (inactive). Besides, the GI50 in the test on OVCAR-4, in the test with NCI/ADR-RES, with TK-10, in the test with HCC 2998 and in the test with NCI-H23 was > 100 µM (inactive) each time.
On to `CC(=O)Oc1c2oc3ccc(Cl)cc3c(=O)c2c(O)c2ccsc12`, for which the GI50 in the test on HCT-15 was above 100 µM; with A549, > 100 µM (inactive); with ACHN, > 100 µM (inactive); in the test on EKVX, > 100 µM (inactive); in the test on NCI-H226, > 100 µM (inactive); with U-251 it was > 100 µM (inactive). Moreover, the GI50 with SF-295 was > 100 µM (inactive); in the test with UACC-62 it was > 100 µM (inactive); in the test on Hs-578T, 33.3 µM (inactive); with OVCAR-8, > 100 µM (inactive); in the test on MDA-N it was > 100 µM (inactive); with CAKI-1 it was > 100 µM (inactive). For the same compound, the GI50 in the test with OVCAR-4 was > 100 µM (inactive); in the test with NCI/ADR-RES, > 100 µM (inactive); in the test on TK-10, 27.6 µM (inactive); in the test with HCC 2998, > 100 µM (inactive); with NCI-H23 it was > 100 µM (inactive).
On to `O=c1c2cc(I)ccc2nc(-c2cccs2)n1-c1ccc(O)cc1`, for which the GI50 in the test on NCI-H522 was 13.1 µM (inactive); in the test with HCT-15, 12.4 µM; in the test on A549, 10.2 µM (inactive); in the test on ACHN, 8.2 µM (inactive); in the test on EKVX, 14.4 µM (inactive); in the test with NCI-H226, 14.4 µM (inactive). Besides, the GI50 with U-251 is 17.9 µM (inactive); with SF-295, 12.6 µM (inactive); in the test with SR, 17.4 µM (inactive); with UACC-62, 13.1 µM (inactive); in the test on MOLT-4, 6.04 µM (inactive); in the test on OVCAR-8, 15.5 µM (inactive). In addition, the GI50 in the test on MDA-N is 14.6 µM (inactive); in the test on CAKI-1 it was 17.1 µM (inactive); with OVCAR-4 it was 12.6 µM (inactive); in the test with NCI/ADR-RES, 17.8 µM (inactive); in the test on TK-10, 10.7 µM (inactive); in the test on HCC 2998 it was 16.1 µM (inactive). Besides, the GI50 with NCI-H23 was 16.7 µM (inactive).
